The record followed here is patent EP2929883A1, “Pyrazole derivatives as dihydroorotate dehydrogenase (DHODH) inhibitors” (INSTITUT PASTEUR, priority 2014, dated 2015).

Each structure is given as a SMILES string. Values after ≈ are worked out from the molar mass of the structure shown.

This experiment has as its system measles virus. Nature of the experiment: microbe, parasite or virus in culture. The settings on record: Measles morbillivirus, 24 h.
Compound `CCc1cnc(-n2nc(OC(C)C)c(Cc3ccccc3F)c2C)nc1` [example 23, 5-ethyl-2-(4-(2-fluorobenzyl)-3-isopropoxy-5-methyl-1H-pyrazol-1-yl)pyrimidine] registered an MIC50 of 0.0005 to 0.05 µM (≈ 0.000177 to 0.0177 µg/mL).

`Cc1c(Oc2c(F)cccc2F)c(OC(C)C)nn1-c1ncc(C2CC2)cc1O` [example 187, 5-cyclopropyl-2-(4-(2,6-difluorophenoxy)-3-isopropoxy-5-methyl-1H-pyrazol-1-yl)pyridin-3-ol]: the MIC50 is 0.0005 to 0.05 µM (≈ 0.000201 to 0.0201 µg/mL).

`CCOc1nn(-c2nccc(C)n2)c(C)c1Cc1ccccc1` [example 113, 2-(4-benzyl-3-ethoxy-5-methyl-1H-pyrazol-1-yl)-4-methylpyrimidine] yielded an MIC50 of 0.5 to 5 µM (≈ 0.154 to 1.54 µg/mL).

The compound `Cc1nn(-c2ccc(Br)cn2)c(OC(C)C)c1Oc1c(F)cccc1F` [example 60, 5-bromo-2-(4-(2,6-difluorophenoxy)-5-isopropoxy-3-methyl-1H-pyrazol-1-yl)pyridine] gave an MIC50 above 5 µM.

`Cc1c(Oc2ccc(F)cc2F)c(OC(C)C)nn1-c1ccc(C2CC2)cn1` [example 17, 5-cyclopropyl-2-(4-(2,4-difluorophenoxy)-3-isopropoxy-5-methyl-1H-pyrazol-1-yl)pyridine] came in with an MIC50 of 0.05 to 0.5 µM (≈ 0.0193 to 0.193 µg/mL).

`Cc1c(Oc2c(F)cccc2F)c(OC(C)C)nn1-c1ccc(C2CC2)nn1` [example 7, 3-cyclopropyl-6-(4-(2,6-difluorophenoxy)-3-isopropoxy-5-methyl-1H-pyrazol-1-yl)pyridazine] had an MIC50 of 0.0005 to 0.05 µM (≈ 0.000193 to 0.0193 µg/mL).

Regarding `CCOc1nn(-c2ccc(C3CC3)cn2)c(C)c1I` [example 108, 5-cyclopropyl-2-(3-ethoxy-4-iodo-5-methyl-1H-pyrazol-1-yl)pyridine], the MIC50 was above 5 µM.

In turn, `Cc1c(Cc2ccccc2F)c(OC(C)C)nn1-c1ccc(C2CC2)cn1` [example 90, 5-cyclopropyl-2-(4-(2-fluorobenzyl)-3-isopropoxy-5-methyl-1H-pyrazol-1-yl)pyridine] registered an MIC50 of 0.05 to 0.5 µM (≈ 0.0183 to 0.183 µg/mL).

For the compound `CCOc1nn(-c2ccc(C3CC3)cn2)c(C)c1Oc1ccccc1C(F)(F)F` [example 56, 5-cyclopropyl-2-(3-ethoxy-5-methyl-4-(2-(trifluoromethyl)phenoxy)-1H-pyrazol-1-yl)pyridine], the MIC50 lay within 0.05 to 0.5 µM (≈ 0.0202 to 0.202 µg/mL).

The compound `CC(C)Oc1nn(-c2ncc(C3CC3)cn2)cc1S(=O)(=O)c1ccccc1` [example 183, 5-cyclopropyl-2-(3-isopropoxy-4-(phenylsulfonyl)-1H-pyrazol-1-yl)pyrimidine] displayed an MIC50 of 0.0005 to 0.05 µM (≈ 0.000192 to 0.0192 µg/mL).

Consider `CCN(CC)Cc1c(Cc2ccccc2)c(OC(C)C)nn1-c1ncc(C2CC2)cn1` [example 169, N-((4-benzyl-1-(5-cyclopropylpyrimidin-2-yl)-3-isopropoxy-1H-pyrazol-5-yl)methyl)-N-ethylethanamine], for which the MIC50 is above 5 µM.

The compound `CCOc1nn(-c2ccc(OC)cn2)c(C)c1Cc1ccccc1` [example 125, 2-(4-benzyl-3-ethoxy-5-methyl-1H-pyrazol-1-yl)-5-methoxypyridine] showed an MIC50 of 0.5 to 5 µM (≈ 0.162 to 1.62 µg/mL).

Take `CCOc1c(Cc2ccccc2)c(C)nn1-c1ncc(Br)cn1` [example 43, 2-(4-benzyl-5-ethoxy-3-methyl-1H-pyrazol-1-yl)-5-bromopyrimidine]: the MIC50 was above 5 µM.

As for `CCOc1nn(-c2ncccc2F)c(C)c1Cc1ccccc1` [example 37, 2-(4-benzyl-3-ethoxy-5-methyl-1H-pyrazol-yl)-3-fluoropyridine], the MIC50 is above 5 µM.

`CCOc1cc(-c2ccc(OC)cc2)n(-c2ccccn2)n1` [example 145, 2-(3-ethoxy-5-(4-methoxyphenyl)-1H-pyrazol-1-yl)pyridine]: the MIC50 is above 5 µM.

`CCOc1nn(-c2ncc(CC)cn2)c(C)c1-c1ccccc1` [example 153, 2-(3-ethoxy-5-methyl-4-phenyl-1H-pyrazol-1-yl)-5-ethylpyrimidine] yielded an MIC50 of 0.5 to 5 µM (≈ 0.154 to 1.54 µg/mL).

In the case of `CCOc1nn(-c2ccc(C3CC3)cn2)c(C)c1Oc1cccc(Cl)c1Cl` [example 49, 5-cyclopropyl-2-(4-(2,3-dichlorophenoxy)-3-ethoxy-5-methyl-1H-pyrazol-1-yl)pyridine], the MIC50 lay within 0.0005 to 0.05 µM (≈ 0.000202 to 0.0202 µg/mL).

In turn, `Cc1c(Oc2c(F)cccc2F)c(OC(C)C)nn1-c1cnc(Br)cn1` [example 48, 2-bromo-5-(4-(2,6-difluorophenoxy)-3-isopropoxy-5-methyl-1H-pyrazol-1-yl)pyrazine] registered an MIC50 of 0.5 to 5 µM (≈ 0.213 to 2.13 µg/mL).

`COc1ccc(-n2nc(OC(C)C)c(Oc3c(F)cccc3F)c2C)nc1` [example 126, 2-(4-(2,6-difluorophenoxy)-3-isopropoxy-5-methyl-1H-pyrazol-1-yl)-5-methoxypyridine] returned an MIC50 of 0.05 to 0.5 µM (≈ 0.0188 to 0.188 µg/mL).

For `CCOc1nn(-c2ccc(C3CC3)cn2)c(C)c1C(C)(O)c1ccccc1` (stereo not shown) [example 178, 1-(1-(5-cyclopropylpyridin-2-yl)-3-ethoxy-5-methyl-1H-pyrazol-4-yl)-1-phenylethanol], the MIC50 lay within 0.5 to 5 µM (≈ 0.182 to 1.82 µg/mL).

As for `Cc1c(Oc2c(F)cccc2F)c(OC(C)C)nn1-c1ncc(C2CC2)cc1C#N` [example 46, 5-cyclopropyl-2-(4-(2,6-difluorophenoxy)-3-isopropoxy-5-methyl-1H-pyrazol-1-yl)nicotinonitrile], the MIC50 was in the range of 0.0005 to 0.05 µM (≈ 0.000205 to 0.0205 µg/mL).

On to `Cc1c(Oc2cc(F)ccc2F)c(OC(C)C)nn1-c1ccc(C2CC2)cn1` [example 18, 5-cyclopropyl-2-(4-(2,5-difluorophenoxy)-3-isopropoxy-5-methyl-1H-pyrazol-1-yl)pyridine], for which the MIC50 was 0.0005 to 0.05 µM (≈ 0.000193 to 0.0193 µg/mL).

The compound `CC(C)Oc1nn(-c2ncc(C3CC3)cc2F)cc1Oc1ccccc1F` [example 66, 5-cyclopropyl-3-fluoro-2-(4-(2-fluorophenoxy)-3-isopropoxy-1H-pyrazol-1-yl)pyridine] gave an MIC50 of 0.0005 to 0.05 µM (≈ 0.000186 to 0.0186 µg/mL).

For the compound `CCOc1c(Cc2ccccc2)c(C)nn1-c1ncc(CC)cn1` [example 26, 2-(4-benzyl-5-ethoxy-3-methyl-1H-pyrazol-1-yl)-5-ethylpyrimidine], the MIC50 was 0.5 to 5 µM (≈ 0.161 to 1.61 µg/mL).

`c1ccc(Oc2cn(-c3ccc(C4CC4)cn3)nc2C2CC2)cc1` [example 120, 5-cyclopropyl-2-(3-cyclopropyl-4-phenoxy-1H-pyrazol-1-yl)pyridine] returned an MIC50 of 0.05 to 0.5 µM (≈ 0.0159 to 0.159 µg/mL).

Take `CCOc1nn(-c2ncc(CC)cn2)c(C)c1Oc1cc(Cl)cc(Cl)c1` [example 79, 2-(4-(3,5-dichlorophenoxy)-3-ethoxy-5-methyl-1H-pyrazol-1-yl)-5-ethylpyrimidine]: the MIC50 was in the range of 0.5 to 5 µM (≈ 0.197 to 1.97 µg/mL).

Consider `CCc1cnc(-n2nc(OC(C)C)c(Cc3ccc(F)cc3)c2C)nc1` [example 24, 5-ethyl-2-(4-(4-fluorobenzyl)-3-isopropoxy-5-methyl-1H-pyrazol-1-yl)pyrimidine], for which the MIC50 lay in the range of 0.0005 to 0.05 µM (≈ 0.000177 to 0.0177 µg/mL).

`Cc1c(Oc2c(F)cccc2F)c(OC(C)C)nn1-c1ncc(C2CC2)cc1OCc1ccccc1` [example 186, 3-(benzyloxy)-5-cyclopropyl-2-(4-(2,6-difluorophenoxy)-3-isopropoxy-5-methyl-1H-pyrazol-1-yl)pyridine] had an MIC50 of 0.05 to 0.5 µM (≈ 0.0246 to 0.246 µg/mL).

The compound `CCOc1nn(-c2ncc(CC)cn2)c(C)c1Oc1ccccc1` [example 72, 2-(3-ethoxy-5-methyl-4-phenoxy-1H-pyrazol-1-yl)-5-ethylpyrimidine] registered an MIC50 of 0.5 to 5 µM (≈ 0.162 to 1.62 µg/mL).

Take `CCOc1nn(-c2ccccn2)c(C)c1-c1cccc(C(F)(F)F)c1` [example 158, 2-(3-ethoxy-5-methyl-4-(3-(trifluoromethyl)phenyl)-1H-pyrazol-1-yl)pyridine]: the MIC50 was above 5 µM.

`CCc1cnc(-n2nc(OC(C)C)c(Oc3ccc(F)cc3F)c2C)nc1` [example 61, 2-(4-(2,4-difluorophenoxy)-3-isopropoxy-5-methyl-1H-pyrazol-1-yl)-5-ethylpyrimidine] had an MIC50 of 0.0005 to 0.05 µM (≈ 0.000187 to 0.0187 µg/mL).

In the case of `CC(=O)c1ccc(-n2nc(OC(C)C)c(Oc3c(F)cccc3F)c2C)nc1` [example 87, 1-(6-(4-(2,6-difluorophenoxy)-3-isopropoxy-5-methyl-1H-pyrazol-1-yl)pyridin-3-yl)ethanone], the MIC50 was in the range of 0.05 to 0.5 µM (≈ 0.0194 to 0.194 µg/mL).

In turn, `Cc1c(Oc2ccccc2F)c(OC(C)C)nn1-c1ncc(C2CC2)cn1` [example 51, 5-cyclopropyl-2-(4-(2-fluorophenoxy)-3-isopropoxy-5-methyl-1H-pyrazol-1-yl)pyrimidine] returned an MIC50 of 0.0005 to 0.05 µM (≈ 0.000184 to 0.0184 µg/mL).

Compound `CC(C)Oc1nn(-c2ncc(C3CC3)cc2C#N)cc1Oc1ccccc1` [example 75, 5-cyclopropyl-2-(3-isopropoxy-4-phenoxy-1H-pyrazol-1-yl)nicotinonitrile] yielded an MIC50 above 5 µM.

Regarding `CCOc1nn(-c2ccc(OC)cc2)cc1Cc1ccccc1` [example 164, 4-benzyl-3-ethoxy-1-(4-methoxyphenyl)-1H-pyrazole], the MIC50 is above 5 µM.

Consider `CCOc1cc(Cc2ccccc2)n(-c2ccccn2)n1` [example 3, 2-(5-benzyl-3-ethoxy-1H-pyrazol-1-yl)pyridine], for which the MIC50 is above 5 µM.

`CCOc1nn(-c2ccc(C3CC3)cn2)c(C)c1-c1ccccc1` [example 161A, 5-cyclopropyl-2-(3-ethoxy-5-methyl-4-phenyl-1H-pyrazol-1-yl)pyridine] gave an MIC50 of 0.5 to 5 µM (≈ 0.16 to 1.6 µg/mL).

`CCOc1nn(-c2ncc(CC)c(C)n2)c(C)c1Cc1ccccc1` [example 175, 2-(4-benzyl-3-ethoxy-5-methyl-1H-pyrazol-1-yl)-5-ethyl-4-methylpyrimidine] registered an MIC50 of 0.0005 to 0.05 µM (≈ 0.000168 to 0.0168 µg/mL).

For `CCOc1nn(-c2ccc(C3CC3)cn2)c(C)c1C(=O)c1ccccc1` [example 151, (1-(5-cyclopropylpyridin-2-yl)-3-ethoxy-5-methyl-1H-pyrazol-4-yl)(phenyl)methanone], the MIC50 is 0.05 to 0.5 µM (≈ 0.0174 to 0.174 µg/mL).

On to `CC(C)Oc1nn(-c2ccc(C3CC3)cn2)cc1C(=O)c1ccccc1` [example 109, (1-(5-cyclopropylpyridin-2-yl)-3-isopropoxy-1H-pyrazol-4-yl)(phenyl)methanone], for which the MIC50 lay in the range of 0.5 to 5 µM (≈ 0.174 to 1.74 µg/mL).

For `CCOc1nn(-c2ncc(CC)cn2)c(C)c1Cc1ccccc1` [example 25, 2-(4-benzyl-3-ethoxy-5-methyl-1H-pyrazol-1-yl)-5-ethylpyrimidine], the MIC50 was in the range of 0.0005 to 0.05 µM (≈ 0.000161 to 0.0161 µg/mL).

In turn, `CCOc1nn(-c2ncccn2)c(C)c1Cc1ccccc1` [example 123, 2-(4-benzyl-3-ethoxy-5-methyl-1H-pyrazol-1-yl)pyrimidine] had an MIC50 of 0.5 to 5 µM (≈ 0.147 to 1.47 µg/mL).

Compound `CCOc1nn(-c2ccc(C(C)(C)O)cn2)c(C)c1Cc1ccccc1` [example 34, 2-(6-(4-benzyl-3-ethoxy-5-methyl-1H-pyrazol-1-yl)pyridin-3-yl)propan-2-ol] showed an MIC50 above 5 µM.
